Key:
[1] = TK assay, intravenous mixture dosing: serum concentrations and noncompartmental analysis (sparse data); conditions: IV mixture dosing, NCA, n=12
Protocol: (§1) The experiment was carried out on thirty 10-wk old female New Zealand white rabbits (INRA 1777 line) weighing 2.37±0.14kg . […] Blood samples were taken at the designated time points post IV and oral administration: 15 min, 30 min, 1 h, 2 h, 4 h, 8 h, 12 h, 24 h, 3 d, 7 d, and 28 d from groups of 3 or 6 rabbits at each sampling time. Each rabbit was sampled 3 times and 3 rabbits were sampled at each sampling time, except at 30 min post administration, when 6 samples were collected to provide a sufficient blood volume for assaying the compounds. The doses and assay time points were selected to allow the calculation of TK parameters (Table 1) based on preliminary TK data. Residual concentrations of the compounds, and their possible evolution over time, were determined by sampling six entirely untreated rabbits during the TK study on the day of drug administrations, then 14 d and 28 d later.
(§2) The volume administered was adjusted to the animal’s body weight (BW) recorded the day before.
(§3) Intravenous administrations were performed via an indwelling catheter (22G Terumo, 0.9×25mm ) just after its insertion into an ear vein. […] For oral administrations, the mixture of all compounds ( 4mL/kg ) was deposited directly in the mouth of rabbits using a catheter (22G BD Insyte 22G, 0.9×25mm ). Prior to the study, the rabbits had been trained to gradually swallow water and then corn oil.
(§4) Blood samples were collected from the auricular artery using a 20 G needle ( 0.9×25mm ) and a dry tube. The first two blood samples were 8–10mL in volume, whereas a large volume (about 20mL ) was obtained antemortem immediately after electrical stunning (95LX rabbit stunner; Burdis), followed by exsanguination.
(§5) Serum concentration-time profiles of the different compounds were first analyzed using a noncompartmental approach (NCA) involving a sparse data option. Sparse data methodology consists of calculating TK parameters based on the mean profile of all the subjects in the dataset and is appropriate when a rich data series cannot be obtained, as in the present experiment ([FDA 1999]). The area under the concentration time curve ( AUC0−tlast ) and the area under the first moment curve ( AUMC0−tlast ) from dosing time ( t=0 ) to the time of the last measurable concentration were calculated using the linear trapezoidal rule after IV and oral dosing. The area under the serum concentration time curve from dosing time to infinity ( AUC0−inf ) was obtained by adding to AUC0−tlast the area extrapolated from the time of the last measurable concentration to infinity by dividing the last quantifiable serum concentration by the slope of the terminal phase ( λZ ), as estimated by linear regression using the best fit option of Phoenix®.
(§6) The clearance (CL) and apparent clearance (CL_F) were respectively estimated after IV and oral administrations by dividing the administered dose by the AUC0−inf calculated for each analyte.
(§7) The terminal half-life (HL) was estimated with Equation 1: (1) HL=0.69315/λZ where λz is the slope of the terminal phase.
The mean residence time (MRT) was estimated using Equation 3: (3) MRT=AUMCiv0−tlast /AUCiv0−tlast , where AUCMiv0−tlast and AUCiv0−tlast are the values of AUMC0−tlast and AUC0−tlast obtained after IV dosing.
The steady-state volume of distribution ( VSS ) was estimated using Equation 4: (4) VSS=CL×MRT, with CL and MRT as defined above.

[2] = TK assay, oral mixture dosing: serum concentrations and noncompartmental analysis (sparse data); conditions: oral mixture dosing, NCA, n=12
Protocol: as §1, §2, §3, §4, §5, §6, §7
The oral bioavailability (F) was estimated using Equation 2: (2) F=AUCvo0−tlast×Doseiv/AUCiv0−tlast×Dosevo, where AUCiv0−tlast and AUCvo0-tlast are the values of AUC0−tlast obtained after IV and oral dosing, respectively, and Doseiv and Dosevo are the IV and oral doses.

[3] = Estimation of loading and daily maintenance doses and NLME model simulations; parameters: species or system female rabbits; conditions: oral; for Computed maintenance dose: daily; for Computed maintenance dose / Computed loading dose: scaled to the targeted CSS of Table 6
Protocol: The ultimate goal of this TK investigation was to compute a dosage regimen that allowed targeted steady-state serum concentrations to be attained rapidly for a planned TK/TD trial on the reprotoxic effect of a mixture of environmental contaminants in female rabbits. […] With that in mind, the loading and the daily maintenance doses of each compound were evaluated using Equations 12 and 13, respectively.
This risk was also the reason why the NLME model was employed to simulate the time development of the amounts of compounds in the central and peripheral compartments following administration of the daily maintenance dose of each compound over the same duration.
The loading and maintenance doses computed to ensure a nominal CSS of 1 ng/mL were scaled to determine the doses to be administrated by oral route to female rabbits to maintain the targeted CSS .

[4] = Nonlinear mixed effect (NLME) compartmental modeling of merged IV and oral serum concentrations
Description: A nonlinear mixed effect (NLME) modeling approach was used to analyze simultaneously all data obtained from the different rabbits after both IV and oral administrations and to provide robust estimates of the typical TK parameters.
The primary parameters of the model, namely the volume of distribution of the central compartment (V1), the first-order rate constants ( K10 , K12 , K21 , and Kabs plus K13 , K31 for PFOA) and the bioavailability (F) and their associated precisions [standard error (SE)] were estimated by minimizing an objective function value (OFV) expressed as minus twice the log of the likelihood estimation ( −2LL ). […] Marginal likelihood was approximated by using the Laplacian engine by default and, when this engine was unable to determine the SE of the estimate, the Quasi-Random Parametric Expectation Maximization (QRPEM) was selected.
Between subject variability (BSV) of the parameters was measured using the exponential model θparameter_i=θtv_parameter×exp (ηi), where θparameter_i is the parameter estimated for the ith individual, θtv_parameter is the typical population value of the parameter, and ηi is the deviation associated with the ith individual from the corresponding value of the parameter at the population level.
The distribution of ηi was assumed to be normal with a mean of 0 and a variance ω² . BSV was reported as a coefficient of variation (CV) in the original scale CV(%)=100× exp (ω^2)−1 .
The residual variance was modeled using a combined additive and proportional error model Cobsij=Cpredij(1 + ε1ij) + ε2ij, where Cobsij and Cpredij are respectively the jth observed and predicted concentrations for the ith individual, and ε1ij and ε2ij are the multiplicative and additive residual errors.
Secondary parameters were calculated from the population primary parameters.
The clearance values (CL) were estimated using Equation 5: (5) CL=K10×V1, where V1 is the volume of the central compartment and K10 is the elimination rate constant from the central compartment.
The volume of the peripheral compartment (V2) was estimated with Equation 6: (6) V2=V1×(K12/K21), where K12 and K21 are the distribution rate constants between the central and the peripheral compartments.
The clearance of distribution (Q) was estimated using Equation 7: (7) Q=K12×V1, with […] and K12 as defined above.
The volume of distribution associated with the terminal phase was estimated with Equation 10: (10) VZ=CL/λZ, with λZ as defined above.
The AUC was computed as a secondary parameter using Equation 11: (11) AUC=Dose/CL.
The terminal half-life was estimated with Equation 1, as previously described.

[5] = Chronic exposure: daily oral mixture for 17 wk, steady-state serum concentrations; conditions: serum, mean±SD, n=16, after 17 weeks of oral mixture; MEHP after DEHP dosing
Protocol: The objective of this preliminary experiment was to check the ability of our approach to determine the loading and maintenance doses of the eight compounds to be administered simultaneously by oral route to reproduce in female rabbits targeted serum concentrations. The experiment was carried out on thirty-two 2-wk old female New Zealand white rabbits (INRA 1777 line) randomly allocated to a treatment and control groups of 16 rabbits weighing 309±45g and 298±62g , respectively. The treated rabbits were orally administrated a mixture of the eight compounds at a dosage corresponding to the sum of the loading and daily maintenance doses followed by daily administrations of the maintenance dose for 17 wk (see the “Estimation of the doses” section). The control group was orally administrated the vehicle for the same duration.
The volume of the maintenance dosing solution ( 1mL/kg ) was weekly adjusted to the mean BW estimated from the known pattern of growth of the INRA 1777 rabbit line. Oral dosing and antemortem blood sampling were performed as previously described.
Blood samples were left to clot for about 20–30 min at ambient temperature and centrifuged for 20 min at 3,000×g at 25°C. The separated serum was stored in glass tubes at −20°C until assayed.

[6] = rodents; ref Chang et al. 2012; cited from earlier work

Structure (SMILES)	MRT [1]	AUC0−inf ([1]; serum)	Cmax ([1]; serum, doses in Table 2 r3, BPSG after BPS dosing)	half-life ([1]; terminal)	MRT ([2]; MEHP after oral DEHP)	Tmax ([2]; MEHP after oral DEHP)	AUC0−inf ([2]; serum, MEHP after oral DEHP)	Cmax ([2]; serum, doses in Table 3 r3, MEHP measured after oral DEHP, BPSG after BPS)	half-life ([2]; terminal, MEHP after oral DEHP)	Computed maintenance dose [3]	Computed loading dose [3]	Daily maintenance dose ([3]; to maintain serum concentration of 1 ng/mL, daily CL×Css/F, DEHP dose for MEHP in serum)	Loading dose ([3]; to rapidly attain serum concentration of 1 ng/mL, Vss×Css/F, DEHP dose for MEHP in serum)	Oral bioavailability (F) ([4]; NLME model)	Clearance ([4]; population secondary parameter, mean)	Observed CSS [5]	Intestinal absorption [6]
O=C(O)[C@H]1O[C@@H](Oc2ccc(S(=O)(=O)c3ccc(O)cc3)cc2)[C@H](O)[C@@H](O)[C@@H]1O [BPSG, bisphenol S glucuronide]	3.16 h	5.18 µmol·h/L	5.78 µM	3.80 h	7.66 h	16.2 min	15.8 µmol·h/L	6.91 µM	4.23 h	–	–	–	–	–	–	–	–
CCCCC(CC)COC(=O)c1ccccc1C(=O)OCC(CC)CCCC (stereo not shown) [DEHP, di(2-ethylhexyl)phthalate]	–	–	–	–	–	–	–	–	–	780 µg/kg	264 µg/kg	13 µg/kg	4.4 µg/kg	–	–	–	–
O=S(=O)(O)C(F)(F)C(F)(F)C(F)(F)C(F)(F)C(F)(F)C(F)(F)C(F)(F)C(F)(F)F [PFOS, perfluorooctane sulfonate]	–	–	–	–	–	–	–	–	–	1.3 µg/kg	60 µg/kg	–	–	100%	lower than 0.01 L/kg/h	154 ± 25 ng/mL	117%

— paper PMC8597046, “Use of Mixture Dosing and Nonlinear Mixed Effect Modeling of Eight Environmental Contaminants in Rabbits to Improve Extrapolation Value of Toxicokinetic Data” (Environmental Health Perspectives, 2021)
